Legend:
1b (BK) NS5bΔ21 = 1b (BK) NS5bΔ21 (Hepatitis C virus genotype 1b (isolate BK) (HCV), UniProt P26663); assay: HCV polymerase inhibition assay, genotype 1b; type: biochemical, HCV genotype 1b (BK); details: 1b (BK) NS5bΔ21, 33P-GTP incorporation; read-out: 1b polymerase IC50 (range class)
Method in brief: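 NS5bΔ21 (50 nM) in Tris-HCl pH 7.5 with Mg2+/Mn2+, DTT, BSA, 0.5% DMSO, poly(rC) template, GTP at Km and ^33P-GTP; 3-fold compound dilutions. GTP-started reactions stopped with EDTA after 1 h; incorporation read by DEAE filter scintillation counting. IC50 by non-linear regression; 3a enzyme run the same way.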

[1] = tested on: genotype 1b (Con 1) subgenomic replicon cell line; assay: HCV replicon assay, genotype 1b (Renilla luciferase); type: cell-based, HCV genotype 1b (Con 1); details: Hepatitis C virus; genotype 1b replicon, 72 hours, luciferase; read-out: genotype 1b EC50 (range class)
Method in brief: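 Subgenomic replicon cells expressing Renilla luciferase (1b Con1; 1a and 2a lines by the same method) seeded at 7000 cells/well (5000 for 2a) without G418, exposed to 3-fold compound dilutions for 72 h at 37 °C. Luciferase activity measured; EC50 by non-linear regression.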

Chain of 1b (BK) NS5bΔ21 (P26663 2420-2989): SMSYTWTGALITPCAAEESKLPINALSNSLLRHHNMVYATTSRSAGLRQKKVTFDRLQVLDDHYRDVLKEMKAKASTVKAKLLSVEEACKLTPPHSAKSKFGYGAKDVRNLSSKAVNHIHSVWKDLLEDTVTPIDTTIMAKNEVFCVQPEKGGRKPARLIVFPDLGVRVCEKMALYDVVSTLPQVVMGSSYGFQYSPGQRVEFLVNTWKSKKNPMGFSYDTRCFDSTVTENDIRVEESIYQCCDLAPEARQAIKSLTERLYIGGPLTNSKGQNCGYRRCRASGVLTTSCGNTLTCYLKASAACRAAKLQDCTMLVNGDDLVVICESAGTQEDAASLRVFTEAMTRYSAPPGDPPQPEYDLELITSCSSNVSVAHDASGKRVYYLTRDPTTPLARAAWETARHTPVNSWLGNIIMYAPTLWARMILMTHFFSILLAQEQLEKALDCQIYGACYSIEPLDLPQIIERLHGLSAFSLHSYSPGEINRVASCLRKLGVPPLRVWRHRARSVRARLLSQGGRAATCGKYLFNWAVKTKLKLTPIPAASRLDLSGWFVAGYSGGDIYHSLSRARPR

| SMILES | IC50 (1b (BK) NS5bΔ21) | EC50 [1] |
| --- | --- | --- |
| CNC(=O)c1c2cc(C3CC3)c(N(CCCN(C)S(C)(=O)=O)S(C)(=O)=O)cc2nn1-c1ccc(Br)cc1 [Compound 135] | < 0.99 µM | < 0.99 µM |
| CCN(c1cc2nn(-c3ccc(F)cc3)c(C(=O)NC)c2cc1C1CC1)S(C)(=O)=O [Compound 138] | < 0.99 µM | < 0.99 µM |
| CCN(c1cc2nn(-c3ccc(F)cc3)c(C(=O)NC)c2cc1C)S(C)(=O)=O [Compound 139] | 1 to 9.99 µM | 10 to 50 µM |
| CNC(=O)c1c2cc(C3CC3)c(N(Cc3ccncc3)S(C)(=O)=O)cc2nn1-c1ccc(Br)cc1 [Compound 140] | < 0.99 µM | < 0.99 µM |
| CCOC(=O)CN(c1cc2nn(-c3ccc(Br)cc3)c(C(=O)NC)c2cc1C1CC1)S(C)(=O)=O [Compound 141] | 1 to 9.99 µM | 10 to 50 µM |
| CCN(c1cc2nn(-c3ccc(F)cc3)c(C(=O)NC)c2cc1C1=CCOCC1)S(C)(=O)=O [Compound 142] | 10 to 50 µM | 1 to 9.99 µM |
| CNC(=O)CCCN(c1cc2nn(-c3ccc(Br)cc3)c(C(=O)NC)c2cc1C1CC1)S(C)(=O)=O [Compound 143] | < 0.99 µM | 1 to 9.99 µM |
| CC=Cc1cc2c(C(=O)NC)n(-c3ccc(F)cc3)nc2cc1N(CC)S(C)(=O)=O [Compound 144] | 1 to 9.99 µM | 1 to 9.99 µM |
| CCCc1cc2c(C(=O)NC)n(-c3ccc(F)cc3)nc2cc1N(CC)S(C)(=O)=O [Compound 145] | 1 to 9.99 µM | 1 to 9.99 µM |
| CNC(=O)c1c2cc(C3CC3)c(N(CCCNC(=O)c3ccccc3C(=O)O)S(C)(=O)=O)cc2nn1-c1ccc(NCC(C)C)cc1 [Compound 146] | < 0.99 µM | 1 to 9.99 µM |
| CNC(=O)c1c2cc(C3CC3)c(N(CCCNC(=O)c3ccccc3C(=O)O)S(C)(=O)=O)cc2nn1-c1ccc(Br)cc1 [Compound 147] | < 0.99 µM | 1 to 9.99 µM |
| CNC(=O)CCN(c1cc2nn(-c3ccc(Br)cc3)c(C(=O)NC)c2cc1C1CC1)S(C)(=O)=O [Compound 148] | < 0.99 µM | 1 to 9.99 µM |
| CCN(c1cc2nn(-c3ccc(F)cc3)c(C(=O)NC)c2cc1C#CC(C)(C)O)S(C)(=O)=O [Compound 149] | < 0.99 µM | 10 to 50 µM |
| CNC(=O)c1c2cc(C3CC3)c(N(CCC(=O)NS(=O)(=O)c3ccccc3)S(C)(=O)=O)cc2nn1-c1ccc(Br)cc1 [Compound 150] | < 0.99 µM | 10 to 50 µM |
| CNC(=O)c1ccccc1C(=O)NCCCN(c1cc2nn(-c3ccc(Br)cc3)c(C(=O)NC)c2cc1C1CC1)S(C)(=O)=O [Compound 151] | < 0.99 µM | 1 to 9.99 µM |
| CNC(=O)CCC(=O)NCCCN(c1cc2nn(-c3ccc(Br)cc3)c(C(=O)NC)c2cc1C1CC1)S(C)(=O)=O [Compound 152] | < 0.99 µM | 10 to 50 µM |
| CNC(=O)c1c2cc(C3CC3)c(N(CCC(=O)NS(=O)(=O)c3cccs3)S(C)(=O)=O)cc2nn1-c1ccc(Br)cc1 [Compound 153] | < 0.99 µM | 10 to 50 µM |
| CNC(=O)c1c2cc(C3CC3)c(N(CCC(=O)NS(=O)(=O)c3ccc(F)cc3)S(C)(=O)=O)cc2nn1-c1ccc(Br)cc1 [Compound 154] | < 0.99 µM | 10 to 50 µM |
| CNC(=O)c1c2cc(C3CC3)c(N(CCC(=O)N(C)C)S(C)(=O)=O)cc2nn1-c1ccc(Br)cc1 [Compound 155] | < 0.99 µM | 1 to 9.99 µM |
| CNC(=O)c1c2cc(C3CC3)c(-c3nccn3C)cc2nn1-c1ccc(F)cc1 [Compound 157] | 1 to 9.99 µM | 10 to 50 µM |
| CNC(=O)c1c2cc(C3CC3)c(N(CCCNC(=O)CCOC)S(C)(=O)=O)cc2nn1-c1ccc(Br)cc1 [Compound 161] | < 0.99 µM | < 0.99 µM |
| CCNC(=O)CCN(c1cc2nn(-c3ccc(Br)cc3)c(C(=O)NC)c2cc1C1CC1)S(C)(=O)=O [Compound 162] | 1 to 9.99 µM | 1 to 9.99 µM |
| CCN(c1cc2nn(-c3ccc(F)cc3)c(C(=O)NC)c2cc1-c1csc(C)n1)S(C)(=O)=O [Compound 163] | 10 to 50 µM | 1 to 9.99 µM |
